# Experiments:
# [1] = system: zymosan-induced peritoneal inflammation; experiment: Zymosan-induced peritoneal inflammation model in mice; format: in vivo, mouse; conditions: for Inhibition of total LTC4 content of the peritoneal lavage fluid: p < 0.001 vs zymosan plus vehicle
# Method: Female Balb/c mice 6 to 8-weeks-old obtained from the Animal Resources Centre of the Health Sciences Centre, Kuwait University, were used. They were maintained under temperature-controlled conditions with an artificial 12-h light/dark cycle and allowed standard chow and water ad libitum. The study was carried out in compliance with the Regulations for the Use of Laboratory Animals in the Health Sciences Centre, Kuwait University, and complied with the National Institute of Health guide for the care and use of laboratory animals (NIH Publication # 8023, revised 1978). The zymosan-induced peritonitis model - a recognised LT-mediated inflammatory reaction, was used. […] After 30 min, all groups were injected intraperitoneally with 0.2 ml of activated zymosan (2 mg/ml) except the control group that received 0.2 ml PBS. After 2 h, all animals were killed, and the peritoneal exudate collected by washing the cavity with 3 ml of heparinised (10 IU/ml) PBS. Cells in the exudate were recovered by centrifugation and counted in a haemocytometer while the supernatant volume was recorded and then stored frozen at −78 °C until used for the determination of LTC4 by ELISA as detailed above.
# [2] = system: 5-LO product LTC4 from isolated human monocytes; experiment: Inhibition of 5-LO product LTC4 from isolated human monocytes (A23187); format: cell-based; conditions: Monocyte, calcium ionophore A23187, 95% confidence interval in brackets, read-out: Human monocyte LTC4 IC50 (CI)
# Method: Mononuclear cells were first isolated from heparinised blood using the Ficoll-Hypaque gradient centrifugation method. Monocytes were subsequently purified by adherence to plastic according to standard protocols. The purity of the adherent monocytes (CD14+) was routinely confirmed by flow cytometry to be >95% and viability (by trypan blue exclusion method) was routinely >97%. Adherent monocytes were then washed and incubated in 190 µl culture medium RPMI-1640 supplemented with 100 U/ml penicillin, 100 µg/ml streptomycin and 10% heat-inactivated foetal bovine serum (Sigma-Aldrich, St Louis, MO). […] After further incubation for 15 min, the culture supernatants were recovered by centrifugation and stored at −40 °C pending LTC4 determination.
# (§1) Appropriately diluted supernatants were assayed for the released products – LTs (LTB4 and LTC4), by the enzyme immunoassay (EIA) method using assay kits supplied by R&D Systems (Minneapolis, MN) and following the manufacturer’s instructions.
# (§2) All data were analysed using GraphPad Prism software (GraphPad Software, San Diego, CA). […] Differences between experimental groups were first analysed by one-way ANOVA, followed by Bonferroni’s post-hoc test. A p-value of less than 0.05 was taken as statistically significant.
# [3] = target: T1, recombinant human 5-LO (Homo sapiens, UniProt P09917); experiment: Direct inhibition of 5-LO activity in a cell-free assay (H2DCF-DA fluorescence); format: biochemical; conditions: cell-free, recombinant human 5-LO; 95% confidence interval in brackets
# T1 sequence (P09917 1-674): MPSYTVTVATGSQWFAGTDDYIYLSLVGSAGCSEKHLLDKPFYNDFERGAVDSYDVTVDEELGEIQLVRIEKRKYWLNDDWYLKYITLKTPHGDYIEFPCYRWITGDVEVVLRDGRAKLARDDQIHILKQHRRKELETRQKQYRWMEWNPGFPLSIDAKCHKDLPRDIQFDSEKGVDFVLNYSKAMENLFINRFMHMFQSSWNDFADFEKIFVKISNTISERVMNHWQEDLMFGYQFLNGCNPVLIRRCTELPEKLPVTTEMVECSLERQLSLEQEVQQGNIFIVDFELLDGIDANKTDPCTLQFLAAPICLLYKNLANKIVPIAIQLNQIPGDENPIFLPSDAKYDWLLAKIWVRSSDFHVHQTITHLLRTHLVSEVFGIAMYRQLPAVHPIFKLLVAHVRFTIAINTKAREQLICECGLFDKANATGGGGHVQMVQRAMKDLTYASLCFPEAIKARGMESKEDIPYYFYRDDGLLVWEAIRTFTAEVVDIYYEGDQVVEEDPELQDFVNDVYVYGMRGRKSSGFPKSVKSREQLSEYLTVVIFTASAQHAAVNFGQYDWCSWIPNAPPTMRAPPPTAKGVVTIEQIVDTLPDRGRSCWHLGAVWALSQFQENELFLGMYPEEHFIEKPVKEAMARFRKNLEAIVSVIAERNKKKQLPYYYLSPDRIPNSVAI
# Method: The assay was based on the oxidation of the dye 2′,7′-dichlorodihydrofluorescein diacetate (H2DCF-DA) to a highly fluorescent product by 5-LO enzymatic products. H2DCF-DA (60 µM) was first pre-cleaved by incubating with 450 mU/ml recombinant human 5-LO enzyme in Tris buffer (containing 50 mM Tris, pH = 7.5, 2 mM EDTA, 2 mM CaCl2, 1 mM DTT and 0.6 U/ml glutathione peroxidase) for 10 min at room temperature. […] After 10 min incubation at room temperature, the reaction was started with the addition of 50 µl of substrate solution (Tris buffer containing 20 µM ATP and 20 µM arachidonic acid (AA). After a further 20 min, the reaction was terminated with 100 µl acetonitrile. Fluorescence was read at 500 nm excitation and 520 nm emission, with Novostar^R microplate reader (BMG Labtech, Offenburg, Germany). Appropriate controls, including 100 µM nordihydroguaiaretic acid (NDGA), were included to isolate only the 5-LO-attributable, NDGA-inhibitable RFU values.
# as §2
# [4] = system: 5-LO product LTC4 from allergen/IgE-activated bone marrow-derived mouse mast cells (BMMC); experiment: Inhibition of 5-LO product LTC4 from allergen/IgE-activated bone marrow-derived mouse mast cells (BMMC); format: cell-based; conditions: Mus musculus; anti-DNP IgE/DNP-BSA-activated BMMC; 95% confidence interval in brackets; read-out: Mouse mast cell LTC4 IC50 (CI)
# Method: Bone marrow-derived mast cells (BMMC) were generated from pathogen-free 5 to 7-weeks-old male Balb/c mice according to the method of Davis et al.[28]. Essentially, bone marrow cells were obtained by flushing the femoral bone marrow and the recovered cells cultured in RPMI 1640 medium supplemented with 10% FBS, 100 U/ml penicillin, and 100 µg/ml streptomycin, 25 mM HEPES, 1.0 mM sodium pyruvate, 0.1 mM nonessential amino acids, 0.0035% 2-mercaptoethanol, and 30 ng/ml mouse recombinant IL-3, with culture medium, replaced every 2 days. Cells were used after 4–8 weeks of culture, by which time at least 97% of the cells would have differentiated into mast cells, as routinely obtained in our laboratory.
# The generated BMMCs were seeded at 5 × 10^4 cells/well in a 96-well flat-bottom culture plate and passively sensitised overnight with 0.5 µg/ml anti-DNP monoclonal IgE antibody. The cells were then washed twice to remove any unbound antibody and subsequently resuspended in reaction buffer (135 mM NaCl, 5 mM KCl, 1.8 mM CaCl2, 1 mM MgCl2, 5.6 mM glucose, 0.05% BSA and 20 mM HEPES, pH 7.4). They were then pre-incubated with the test compounds (0.001 − 30 μM) or the solvent (0.05% DMSO) for 15 min before being stimulated with the specific antigen, DNP-BSA (10–30 ng/ml). After 30 min incubation at 37 °C, the amount of LTC4 released into the supernatant was determined by ELISA as described below.
# as §1, §2
# [5] = 10 mg/kg subcutaneously 30 min before zymosan
smiles,measurement,setting,value
"CCCCCCC(=O)N(O)C[C@H]1CN(c2ccc(N3CCOCC3)c(F)c2)C(=O)O1 [PH-249, (R)-N-((3-(3-fluoro-4-morpholinophenyl)-2-oxooxazolidin-5-yl)methyl)-N-hydroxyheptanamide]",Inhibition of cellular infiltration (total cellular content of peritoneal lavage),[1]; [5],only the inhibition by the higher dose reached statistical significance
same,Inhibition of total LTC4 content of the peritoneal lavage fluid,[1]; [5],highly significant inhibition
same,Inhibition of total LTC4 content of the peritoneal lavage fluid,[1]; 30 mg/kg subcutaneously 30 min before zymosan,highly significant inhibition
same,Inhibition of cellular infiltration (total cellular content of peritoneal lavage),"[1]; 30 mg/kg subcutaneously 30 min before zymosan, p < 0.01 vs zymosan plus vehicle",reached statistical significance
same,IC50,[2],900 nM
same,IC50,[3],1900 nM
same,IC50,[4],1300 nM
